# Results from patent publication US7297551B2, “Recombinant proteins and peptides for endotoxin biosensors, endotoxin removal, and anti-microbial and anti-endotoxin therapeutics” (priority 1998, dated 2007).
# Marks after values point to notes of the source that are not given here. Ends that are not written are not given here. Peptide text beside a SMILES is read from it.
# B1: rFCEE: truncated recombinant Factor C from pHILD2/CrFC21EE, amino acids 1-766, 90 kDa, with endotoxin-binding domain (protein, listed as Carcinoscorpius rotundicauda)
# chain: MVLASFLVSGLVLGLLAQKMRPVQSKGVDLGLCDETRFECKCGDPGYVFNIPVKQCTYFYRWRPYCKPCDDLEAKDICPKYKRCQECKAGLDSCVTCPPNKYGTWCSGECQCKNGGICDQRTGACACRDRYEGVHCEILKGCPLLPSDSQVQEVRNPPDNPQTIDYSCSPGFKLKGMARISCLPNGQWSNFPPKCIRECAMVSSPEHGKVNALSGDMIEGATLRFSCDSPYYLIGQETLTCQGNGQWNGQIPQCKNLVFCPDLDPVNHAEHKVKIGVEQKYGQFPQGTEVTYTCSGNYFLMGFDTLKCNPDGSWSGSQPSCVKVADREVDCDSKAVDFLDDVGEPVRIHCPAGCSLTAGTVWGTAIYHELSSVCRAAIHAGKLPNSGGAVHVVNNGPYSDFLGSDLNGIKSEELKSLARSFRFDYVRSSTAGKSGCPDGWFEVDENCVYVTSKQRAWERAQGVCTNMAARLAVLDKDVIPNSLTETLRGKGLTTTWIGLHRLDAEKPFIWELMDRSNVVLNDNLTFWASGEPGNETNCVYMDIQDQLQSVWKTKSCFQPSSFACMMDLSDRNKAKCDDPGSLENGHATLHGQSIDGFYAGSSIRYSCEVLHYLSGTETVTCTTNGTWSAPKPRCIKVITCQNPPVPSYGSVEIKPPSRTNSISRVGSPFLRLPRLPLPLARAAKPPPKPRSSQPSTVDLASKVKLPEGHYRVGSRAIYTCESRYYELLGSQGRRCDSNGNWSGRPASCIPVCGRSDSPRSPFIWNG
# Assays:
# P. aeruginosa = assay: Microbicidal concentration (MBC) assay; assay type: cell-based, Pseudomonas aeruginosa; settings: MBC
# Experimental: Test strains cultured on Mueller-Hinton agar (MHA, Becton Dickinson, USA) were inoculated into 10 ml Mueller-Hinton broth (MHB, Becton Dickinson, USA) and grown overnight at 37° C. in a shaker incubator (Model 4536, Forma Scientific, Inc., USA) at 230 rpm. Overnight broth cultures were diluted to give a final cell density of 10^5 colony forming units/ml (cfu/ml). One hundred microliters of the bacterial suspension was dispensed into sterile polypropylene 8-strip PCR-tubes (Quality Scientific Plastics, USA). Eleven microliters of serially diluted sushi peptides, ranging in final concentrations of 0.03-4 μg/ml, were then added. The peptides were constituted at 10 times the required test concentrations in 0.01% acetic acid and 0.2% bovine serum albumin (BSA). Positive controls were cultures without test peptides. Uninoculated MHB was used as negative control. All tests were carried out in triplicate.
# Cultures were incubated at 37° C. for 18-24 h, with the PCR-tubes held in horizontal position and shaken at 230 rpm. Cell counts were determined by standard drop-count method. The killing efficiency for the four sushi peptides were calculated based on standard drop-count method.
# [1] = Protection of galactosamine-sensitized mice from LPS-induced lethality; assay type: in vivo, C57BL/6J mice; settings: 75 μg peptide, 2 ng LPS pre-incubated with peptide 30 minutes
# Experimental: The anti-endotoxin potency of SSCrFCES was investigated in C57BL/6J mice. Mice are typically resistant to endotoxin. However, the sensitivity of mice to endotoxin can be enhanced >1,000-fold by co-injection with a liver-specific inhibitor, galactosamine (31). […] […] Lethality was observed over 3 days after injection. Statistical analysis were performed using the Kaplan-Meier test (32) and log rank pairwise test.
# P. aeruginosa ATCC 27853 = assay: Killing rate assay; assay type: cell-based, Pseudomonas aeruginosa; settings: peptides at 0.06 μg/ml, initial 10^9 cfu/ml
# From the text: The killing rate assay was adapted from the MBC test above, with different contact time of peptides with the bacteria arrested at regular intervals and plated for colony count. An initial density of 10^9 cfu/ml was used. […] This is one of the important features of an effective therapeutic agent.
# THP-1 monocytes = test system: THP-1 monocytes
# Experimental: Two×10^4 THP-1 monocytes in 50 μl of RPMI 1640 were mixed in a microtitre plate with 50 μl of increasing amount of 2-fold serial dilutions of SSCrFCES (0.004-4.0 mg/ml in PBS) and incubated for 60 min at 37° C. To determine cytotoxicity induced by the SSCrFCES, 20 μl of CellTiter96™ AQueous One Solution Reagent (Promega) was added into each well for 90 min at 37° C. [3-(4,5-dimethylthiazol-2-yl)-5-(3-carboxymethoxyphenyl)-2-(4-sulfophenyl)-2H-tetrazolium (MTS) is bioreduced by metabolically active cells into a colored formazan product that is soluble in tissue culture medium (27, 28). For detection, the absorbance was measured at 490 nm. To determine the ratio of cell lysis induced by SSCrFCES, two controls were used. Complete lysis (100%) was achieved by incubating cells in phosphate buffer saline containing 0.2% Tween-20 instead of medium only. This absorbance value corresponded to the background, as those cells could not metabolize MTS. The second control representing 0% lysis was determined by incubating cells in medium only. […] The experiment was done in triplicate.
# Human erythrocytes = assay: Hemolysis assay, human erythrocytes; assay type: cell-based; settings: 100 μg/ml
# Experimental: Human and rabbit erythrocytes were both used to test the hemolytic activities of the peptides. Whole blood was collected in heparinized sterile syringe, transferred to sterile borosilicate tube and centrifuged at 1200 g for 5 minutes at 4° C. The supernatant including the leukocytes above the erythrocyte pellet was discarded. The erythrocytes were washed 3 times using three volumes of prechilled pyrogen-free saline (PFS). An erythrocyte suspension at 0.4% was prepared for the hemolysis assay. Serial two-fold dilutions of the peptides was prepared in PFS and 100 μl aliquots were added to equal volumes of 0.4% erythrocyte solution in a 96-well microtiter plate (Nunclon™ Δ surface, Nunc) to give final peptide concentrations ranging from 6 to 100 μg/ml. The mixtures were incubated at 37° C. for 1 h. The intact erythrocytes were then pelleted by centrifuging at 1000 g for 5 min. One hundred μl of the supernatant was transferred to a new 96-well microtiter plate and the amount of hemoglobin released into the supernatant was determined by reading the absorbance at 414 nm using a SPECTRAmax™ 340 plate reader with SOFTmax PRO™ version 1.2.0. A positive control with 100 μl of 0.4% erythrocyte lysed in 1% Triton-X 100 was taken as 100% lysis. The negative control was the erythrocytes in PFS alone, which gave minimal lysis. This was taken as 0%.
# Escherichia coli = settings: time-kill kinetics tested on Escherichia coli; cited from earlier work
# [2] = Modified Western blot LPS-binding assay of rFC; set-up: species or system E. coli; settings: 300 μg protein per LPS/lipid A strip
# Experimental: LPS from E. coli 055:B5 (Sigma) was reconstituted to 2 μg/μl, and diphosphoryl lipid A from E. coli K12, D31m4 LPS (List Biologicals, Inc., USA) was made up to 1 μg/μl. The LPS-binding assay was based on modifications of earlier described protocols (45,61). Briefly, 10 μg aliquots of LPS/lipid A were electrophoresed on a denaturing 15% SDS-polyacrylamide gel and electroblotted onto Immobilon™ PVDF membrane. The membrane was cut into strips and each LPS/lipid A strip was subsequently incubated with 300 μg of proteins containing rFC. Detection of rFC binding to lipid A was accomplished by incubation with anti-Factor C antibody followed by alkaline phosphatase-conjugated secondary goat anti-rabbit antibody (Dako) and BCIP/NBT colorimetric substrate (Moss, Inc., USA).
# [3] = test system: the various bacteria used; assay: Bacteriostatic activity in in vitro cultures, the various bacteria used; assay type: cell-based; settings: crude full-length rFC; Sephadex G-100 enriched truncates
# Experimental: (§1) The bacteria used for the assay were Escherichia coli ATCC#25922, Salmonella typhimurium ATCC#14028, Pseudomonas aeruginosa ATCC#27853, Klebsiella pneumoniae ATCC#13883 and […]. A colony of each Gram-negative bacterium was inoculated into nutrient broth (Gibco, BRL) and grown at 37° C. until it reached the logarithmic phase of growth. The culture was diluted with nutrient broth to give 1-5×10^5 cells/ml. Aliquots of 2 ml culture were incubated with 1 mg rFC/ml of culture. Incubation was carried out at 37° C. At time intervals of 0, 2, 4, 6, and 24 h, the bacterial culture was vortexed to break up any agglutinated clumps. After vortexing, each culture was examined under the microscope to ensure homogeneity of bacteria. The culture was serially diluted with 0.85% saline, plated on nutrient agar (Oxoid) and incubated overnight at 37° C. for colony counting.
# [4] = test system: Escherichia coli ATCC#25922; assay: Bacteriostatic activity in in vitro culture, E. coli; assay type: cell-based; settings: within 2 h of incubation
# Experimental: as §1
# [5] = Competition between rFC and CAL Factor C for LPS (fluorimetric assay); assay type: biochemical; settings: Biomax-50 enriched, 100 μg
# Experimental: Carcinoscorpius amoebocyte lysate (CAL) containing native Factor C was used in an assay in which rFC competed with CAL Factor C for LPS. Because the rFC produced in P. pastoris lacks serine protease activity, the competition can be monitored by measuring the reduced enzymatic activity of CAL in a fluorimetric assay. Mixtures of 100 μl each of increasing concentrations of LPS or rFC, in fluorimetric assay buffer (50 mM Tris HCl pH 8, containing 0.1 M NaCl and 0.01 M CaCl2) were incubated at 37° C. for 1 h. Aliquots of 20 μg CAL were added to each mixture and the total volumes were made up to 2 ml with fluorimetric assay buffer. The reaction was continued at 37° C. for 1 h and the fluorimetric assay protocol (64) was followed. This involved the addition of 15 μl of 2 mM fluorimetric substrate N-t-Boc-Val-Pro-Arg-7-amido-4-methylcoumarin (Sigma) and incubation at 37° C. for 30 min. The reaction was terminated by the addition of 0.1 ml of glacial acetic acid (Merck). The product, amino methylcoumarin, was measured in fluorescence units (FU) on a Luminescence Spectrometer LS-5 (Perkin-Elmer) with excitation light at 380 nm and emission at 460 nm.
# The percentage competition by rFC of the native Factor C enzyme activity of CAL was calculated based on comparison of enzyme activity with the negative control of pHILD2/151. […]
# [formula] where FU represents fluorescence units.
Molecule,Cytotoxicity (Cell lysis) BC50 (THP-1 monocytes),Haemolytic Activity at 100 μg/ml peptide (hu RBC) % lysis (Human erythrocytes),also measured
CC[C@H](C)[C@H](NC(=O)[C@H](CCCNC(=N)N)NC(=O)[C@H](C)NC(=O)[C@H](CCSC)NC(=O)CNC(=O)[C@H](CCCCN)NC(=O)[C@H](CC(C)C)NC(=O)[C@H](CCCCN)NC(=O)[C@H](Cc1ccccc1)NC(=O)CN)C(=O)N[C@@H](CO)C(=O)N[C@@H](CS)C(=O)N[C@@H](CC(C)C)C(=O)N1CCC[C@H]1C(=O)N[C@@H](CC(N)=O)C(=O)NCC(=O)N[C@@H](CCC(N)=O)C(=O)N[C@@H](Cc1c[nH]c2ccccc12)C(=O)N[C@@H](CO)C(=O)N[C@@H](CC(N)=O)C(=O)N[C@@H](Cc1ccccc1)C(=O)N1CCC[C@H]1C(=O)N1CCC[C@H]1C(=O)N[C@@H](CCCCN)C(=O)N[C@@H](CS)C(=O)N[C@H](C(=O)N[C@@H](CCCNC(=N)N)C(=O)N[C@@H](CCC(=O)O)C(=O)N[C@@H](CS)C(=O)N[C@@H](C)C(=O)N[C@@H](CCSC)C(=O)N[C@H](C(=O)N[C@@H](CO)C(=O)N[C@@H](CO)C(=O)O)C(C)C)[C@@H](C)CC [S1] (H-GFKLKGMARISCLPNGQWSNFPPKCIRECAMVSS-OH; N-terminus and C-terminus assumed),–,–,Anti-microbial Potency P. aeruginosa MBC90 (P. aeruginosa): 0.03 µg/mL; Mouse Protection Assay [1]: 22% at 75; Killing rate (time to achieve MBC90) (P. aeruginosa ATCC 27853): 7 min
GVSTTVLNIYRGIINLLQLNVKK [S8-vg3],22 µM,100%,–
HAEHKVKIGVEQKYGQFPQGTEVTYTCSGNYFLM [S3],–,5%,–
HKVKKIVKQLYRAEHKVKKIVKQL [S5],33 µM,0%,–
IYRGIINLIQLAVKKAQNVYQM [S9-vg4],35 µM,75%,–
LLNAVPHKATHAALKFLKEK [S7-vg2],400 µM,5%,–
MRKLVLALAKALAKVDKKNL [S6-vg1],26 µM,5%,–
Magainin II,–,–,Killing rate (Escherichia coli): 60^d min
Nisin,–,–,Killing rate (Escherichia coli): 60^d min
RAEHKVKKIVKQLYGQFRQLTRVTRTCSRFLRRM [S4],3.8 µM,20%,–
Ranalexin,–,–,Killing rate (Escherichia coli): >60^d min
B1,–,–,"binding to 7-20 kDa lipid A bands [2]: able to bind specifically to lipid A moiety of LPS, albeit less strongly; inhibitory effect on growth of the various bacteria [3]: did not have any inhibitory effect; agglutination of E. coli [4]: Agglutination; effect on the enzymatic activity of CAL Factor C [5]: markedly lower competitive effect"
